Measurements: patent US20250197343A1, “CATIONIC LIPID” (TAKEDA PHARMACEUTICAL COMPANY LIMITED, priority 2021, published 2025)

Assays:
[1] = system: ICrl:CD1 (ICR) mice; assay: Mouse bioluminescence imaging evaluation (Test Example 1); assay type: in vivo; conditions: Luc DNA-encapsulated lipid nanoparticles 10 mL/kg i.v. to ICR mice; IVIS total flux 15 minutes after luciferin i.p.
Protocol: The Luc DNA-encapsulated lipid nanopatricles obtained in the aforesaid Production Example were intravenously administered to the tails of ICrl:CD1 (ICR) mice (10 mL/kg i.v.). After administration of the lipid particles, luciferin (15 mg/mL) was administered to the mice (10 mL/kg i.p.), which were loaded in an IVIS (in vivo imaging system) apparatus (manufactured by PerkinElmer, Inc.) under isoflurane inhalation anesthesia. Luminescence images of the mice were taken ventrally (in a supine position) 15 minutes after luciferin administration. The luminescence was digitized with the software of IVIS, followed by evaluation using the value of total flux. Higher luminescence means strong expression of the protein encoded by the DNA encapsulate in the lipid particle. In Table 2, higher luminescence is indicated on a scale of A, B and C in order. A represents luminescence of 3.0E+07 or more, B represents luminescence of 1.0E+0.7 or more and less than 3.0E+07, and C represents luminescence of less than 1.0E+07.

[2] = Particle size of Luc DNA-encapsulated lipid nanoparticles; assay type: physicochemical; conditions: cationic lipid:DPPC:cholesterol:GM-020=60:10.6:28:1.4 molar ratio
From the text: The particle size of the lipid particle (in the composition) can be measured by a known approach. For example, the particle size can be calculated as a Z-average particle size by the cumulant analysis of an autocorrelation function using a particle size measurement apparatus Zetasizer Nano ZS (Malvern Instruments) based on a dynamic light scattering measurement technique. The particle size (average particle size) of the lipid particle (in the composition) is, for example, 10 to 200 nm, preferably 60 to 170 nm.
(§1) A lipid mixture containing a cationic lipid of the Examples shown in Table 2 (cationic lipid:DPPC:cholesterol:GM-020=60:10.6:28:1.4, molar ratio) was dissolved in 90% of EtOH and 10% of water to obtain a 15.0 mg/ml lipid solution. Luciferase (luc) DNA (manufactured by Nature Technology Corp.) was dissolved in a 10 mM MES buffer solution (pH 5.5) to obtain a 0.3 mg/ml nucleic acid solution. The obtained lipid solution and nucleic acid solution were mixed at a flow rate ratio of 3 ml/min:6 ml/min at room temperature using NanoAssemblr (manufactured by Precision NanoSystems Inc.) to obtain a dispersion containing Luc DNA-encapsulated lipid nanoparticles. The obtained dispersion was dialyzed against water at room temperature for 1 hour and against PBS at 4° C. for 23 hours using Slyde-A-Lyzer (molecular weight cutoff: 20 K, Thermo Fischer Scientific Inc.). Subsequently, the dialysate was filtered through a 0.2 µm syringe filter (Iwaki). A 60% solution of sucrose in PBS was added thereto, and the mixture was preserved as a 20% solution of sucrose in PBS at −80° C. Analysis results of particle size and rate of encapsulation of the Luc DNA-encapsulated lipid nanoparticles are also shown in Table 2.

[3] = Rate of encapsulation of Luc DNA in lipid nanoparticles; assay type: physicochemical; set-up: unit: %; conditions: Luc DNA-encapsulated lipid nanoparticles; cationic lipid:DPPC:cholesterol:GM-020=60:10.6:28:1.4 molar ratio
From the text: The concentration and rate of encapsulation of the nucleic acid (e.g., siRNA or mRNA) in the composition of the present invention can be measured by a known approach. For example, the nucleic acid is fluorescently labeled using Quant-iT™ RiboGreen® (Invitrogen Corp.), and the fluorescence intensity can be measured to determine the concentration and the rate of encapsulation. The concentration of the nucleic acid in the composition can be calculated using a calibration curve prepared from aqueous nucleic acid solutions having known concentrations. The rate of encapsulation can be calculated on the basis of the difference in fluorescence intensity between the presence and absence of addition of Triton-X 100 (surfactant for disrupting the lipid particle). The concentration of the nucleic acid in the composition refers to the total concentration of a nucleic acid encapsulated in the lipid particle and an unencapsulated nucleic acid. The rate of encapsulation refers to the ratio of the nucleic acid encapsulated in the lipid particle to all nucleic acids in the composition.
as §1

Compound | Particle size (nm) [2] | Rate of encapsulation [3] | Luminescence [1]
CCCCCCCOC(=O)CCCCC(=O)OCC(COC(=O)CCCCC(=O)OCCCCCCC)(COC(=O)CCN(C)C)COC(=O)CC(CCCCC)CCCCC [Example 12, 1,1′-(2-{[(N,N-Dimethyl-beta-alanyl)oxy]methyl}-2-{[(3-pentyloctanoyl)oxy]methyl}propane-1,3-diyl) 6,6′-diheptyl dihexanedioate] | 89.5 nm | 95.7 | C (C represents luminescence of less than 1.0E+07)
CCCCCCCOC(=O)CCCCC(=O)OCC(COC(=O)CCCCC(=O)OCCCCCCC)(COC(=O)CCCN(CC)CC)COC(=O)CC(CCCCC)CCCCC [Example 14, 1,1′-[2-{{[4-(Diethylamino)butanoyl]oxy}methyl)-2-{[(3-pentyloctanoyl)oxy]methyl}propane-1,3-diyl] 6,6′-diheptyl dihexanedioate] | 145.0 nm | 94.7 | A (A represents luminescence of 3.0E+07 or more)
CCCCCCCOC(=O)CCCCC(=O)OCC(COC(=O)CCCN(CC)CC)(COC(=O)CC(CCCCC)CCCCC)COC(=O)CC(CCCCC)CCCCC [Example 17, 2-({[4-(Diethylamino)butanoyl]oxy}methyl)-3-[(3-pentyloctanoyl)oxy]-2-{[(3-pentyloctanoyl)oxy]methyl}propyl heptyl hexanedioate] | 120.7 nm | 96.2 | B (B represents luminescence of 1.0E+0.7 or more and less than 3.0E+07)
CCCCCC(CCCCC)CC(=O)OCC(COC(=O)CCCCC(=O)OCCCC)(COC(=O)CCCN(CC)CC)COC(=O)CC(CCCCC)CCCCC [Example 21, Butyl 2-({[4-(diethylamino)butanoyl]oxy}methyl)-3-[(3-pentyloctanoyl)oxy]-2-{[(3-pentyloctanoyl)oxy]methyl}propyl hexanedioate] | 131.4 nm | 96.2 | B (B represents luminescence of 1.0E+0.7 or more and less than 3.0E+07)
CCCCCCCOC(=O)CCCCC(=O)OCC(COC(=O)CCCN(C)C)(COC(=O)CC(CCC)CCCCCCC)COC(=O)CC(CCC)CCCCCCC (stereo not drawn) [Example 31, 2-({[4-(Dimethylamino)butanoyl]oxy}methyl)-3-[(3-propyldecanoyl)oxy]-2-{[(3-propyldecanoyl)oxy]methyl}propyl heptyl hexanedioate] | 97.9 nm | 97.1 | A (A represents luminescence of 3.0E+07 or more)
CCCCCC(CCCCC)CC(=O)OCC(COC(=O)CCCCCCCC(=O)OCCCC)(COC(=O)CCCCCCCC(=O)OCCCC)COC(=O)CCCN(C)C [Example 33, 1,1′-Dibutyl 9,9′-[2-({[4-(dimethylamino)butanoyl]oxy}methyl)-2-{[(3-pentyloctanoyl)oxy]methyl}propane-1,3-diyl] dinonanedioate] | 145.7 nm | 89.9 | B (B represents luminescence of 1.0E+0.7 or more and less than 3.0E+07)
CCCCCC(CCCCC)CC(=O)OCC(COC(=O)CCCCCCCC(=O)OC)(COC(=O)CCCCCCCC(=O)OC)COC(=O)CCCN(C)C [Example 35, 1,1′-[2-({[4-(Dimethylamino)butanoyl]oxy}methyl)-2-{[(3-pentyloctanoyl)oxy]methyl}propane-1,3-diyl] 9,9′-dimethyl dinonanedioate] | 95.1 nm | 96.1 | B (B represents luminescence of 1.0E+0.7 or more and less than 3.0E+07)
CCCCCC(CCCCC)CC(=O)OCC(COC(=O)CCCCCCCC(=O)OC)(COC(=O)CCCN(C)C)COC(=O)CC(CCCCC)CCCCC [Example 36, 2-({[4-(Dimethylamino)butanoyl]oxy}methyl)-3-[(3-pentyloctanoyl)oxy]-2-{[(3-pentyloctanoyl)oxy]methyl}propyl methyl nonanedioate] | 127.9 nm | 95.1 | B (B represents luminescence of 1.0E+0.7 or more and less than 3.0E+07)
CCCCCC(CCCCC)COC(=O)CCC(=O)OCC(COC(=O)CCCCN(C)C)(COC(=O)CCC(=O)OCC(CCCCC)CCCCC)COC(=O)CCC(=O)OCC(CCCCC)CCCCC [Example 38, 1,1′ {2-({[5-(Dimethylamino)pentanoyl]oxy}methyl)-2-[({4-oxo-4-[(2-pentylheptyl)oxy]butanoyl}oxy)methyl]propane-1,3-diyl} 4,4′-bis(2-pentylheptyl) dibutanedioate] | 131.3 nm | 95.2 | A (A represents luminescence of 3.0E+07 or more)

Further lines, with some results ahead:

Particle size (nm) [2] | Rate of encapsulation [3] | Compound | Luminescence [1]
89.5 nm | 95.9 | CCCCCCCOC(=O)CCCCC(=O)OCC(COC(=O)CCN(C)C)(COC(=O)CC(CCCCC)CCCCC)COC(=O)CC(CCCCC)CCCCC [Example 15, 2-{[(N,N-Dimethyl-beta-alanyl)oxy]methyl}-3-[(3-pentyloctanoyl)oxy]-2-{[(3-pentyloctanoyl)oxy]methyl}propyl heptyl hexanedioate] | C (C represents luminescence of less than 1.0E+07)
98.4 nm | 97.0 | CCCCCCCOC(=O)CCCCC(=O)OCC(COC(=O)CCCN(C)C)(COC(=O)CC(CCCCC)CCCCC)COC(=O)CC(CCCCC)CCCCC [Example 16, 2-({[4-(Dimethylamino)butanoyl]oxy}methyl)-3-[(3-pentyloctanoyl)oxy]-2-{[(3-pentyloctanoyl)oxy]methyl}propyl heptyl hexanedioate] | B (B represents luminescence of 1.0E+0.7 or more and less than 3.0E+07)
89.8 nm | 95.4 | CCCCCC(CCCCC)CC(=O)OCC(COC(=O)CCCCC(=O)OCCCC)(COC(=O)CCN(C)C)COC(=O)CC(CCCCC)CCCCC [Example 19, Butyl 2-{[(N,N-dimethyl-beta-alanyl)oxy]methyl}-3-[(3-pentyloctanoyl)oxy]-2-{[(3-pentyloctanoyl)oxy]methyl}propyl hexanedioate] | B (B represents luminescence of 1.0E+0.7 or more and less than 3.0E+07)
104.2 nm | 97.2 | CCCCCC(CCCCC)CC(=O)OCC(COC(=O)CCCCC(=O)OCCCC)(COC(=O)CCCN(C)C)COC(=O)CC(CCCCC)CCCCC [Example 20, Butyl 2-({[4-(dimethylamino)butanoyl]oxy}methyl)-3-[(3-pentyloctanoyl)oxy]-2-{[(3-pentyloctanoyl)oxy]methyl}propyl hexanedioate] | B (B represents luminescence of 1.0E+0.7 or more and less than 3.0E+07)
184.3 nm | 52.7 | CCCCCC(CCCCC)CC(=O)OCC(COC(=O)CCCCCCCC(=O)OCCCC)(COC(=O)CCCN(C)C)COC(=O)CC(CCCCC)CCCCC [Example 34, Butyl 2-({[4-(dimethylamino)butanoyl]oxy}methyl)-3-[(3-pentyloctanoyl)oxy]-2-{[(3-pentyloctanoyl)oxy]methyl}propyl nonanedioate] | C (C represents luminescence of less than 1.0E+07)
